Measurements as given in patent US10034897B2, “Methods and compositions for muscular and neuromuscular diseases” (priority 2012, dated 2018).

Assays:
[1] = Nitric oxide gas bubbled through carrier, change in weight; assay type: physicochemical; details: NO gas bubbled 40 hr, 25 °C
Experimental: This example illustrates one technique for preparing a composition in accordance with one embodiment of the invention. An accurate amount of a carrier (HNC 167-62) (see below) was introduced into a system. The carrier weight used in these experiments was approximately 250 g and the vessel size was 500 ml. The vessel was equipped with a mechanical stirrer, gas inlet, and gas outlet and was previously purged with argon for about an hour. The temperature of the carrier was kept at about 25-30° C. NO gas regulated at 5 psi (1 psi is about 6,900 Pa) and was then introduced at a controlled rate of about 1 bubble/s with continuous stirring. […] After 6 hours, the weight of the carrier had increased by 0.15%, by 12 hours by 0.25%, and by 24 hours by 0.56%. These increases in weight were believed to be significant considering the relative small molecular weight of NO versus the carrier. […] The carrier also can solidify upon cooling if the carrier is initially a solid at lower temperature.
Each carrier was taken in a 500 mL three necked flask equipped with a mechanical stirrer, gas inlet and a gas outlet. The system was purged with argon for one hour at room temperature (25° C.). Then nitric oxide gas was bubbled into the system. Then, nitric oxide gas was bubbled through carrier for stipulated amount of time. The changes in weight and color were noted. […]

humans [2] = test: Laser Doppler capillary blood flow, closed Hilltop chamber on forearm, Example 5; assay type: in vivo, human; details: applied to the skin at 1/10% in alcohol
Description: The formulation used in these studies contained nitric oxide dispersed in a lipid matrix. […] Nitric oxide is a very rapid acting molecule, and these studies used a system that employed laser Doppler with a covered chamber. The formulation was placed into the chamber and then attached to the skin by an adhesive layer on the covering. This provided a stable measuring device as determined by multiple normal evaluations of the capillary blood flow without treatment of nitric oxide.
A known positive control, methyl nicotinate, was applied to the skin at a concentration of 1/10% in alcohol. […] The vascular dynamics are such that when the blood vessels dilate physical parameters follow Bernoulli's law. This states that as one increases the diameter of a tube containing a liquid to flow will increase but the pressure and the speed of the liquid will decrease. The laser Doppler device accurately measured these parameters.
The test product was labeled as 10,000 ppm NO (nitric oxide). The study participants had 100 mg of the test product applied in a closed Hilltop chamber on the forearm. […]
A Moor Instruments DRT4 Laser Doppler Blood Flow Monitor (Devon, England) was used in these studies. The laser Doppler technique measured blood flow in the microcapillaries of the skin that are close to the skin surface and the blood flow in underlying arterioles and venules that help to regulate skin temperature. […]

humans [3] = test: Laser Doppler capillary circulation in five human subjects, Example 7; assay type: in vivo; details: positive control formulation containing 0.1% methyl nicotinate
Description: This example illustrates delivery of nitric oxide formulations to five human subjects, using procedures and formulations similar to those discussed in Example 5. Each person served as their own control for the testing. A Moor Instruments Laser Doppler was used to determine circulation. […] The formulations used produce positive, almost immediate results when applied to the skin which, in these studies, was manifested by vasodilatation of the cutaneous vascular system.
For each subject, the following creams were applied: a negative control formulation (containing no NO), 0.010 gram of a 10,000 ppm NO formulation, 0.020 gram of a 10,000 ppm NO formulation, and a positive control formulation containing 0.1% methyl nicotinate. The formulations were prepared using procedures similar to those discussed in Example 1.

OCCCO [1,3-Propanediol, 1,3-propanediol]
% Wt. gain [1]: 0.09%
Wt Gain [1]: 0.16 g

COC(=O)c1cccnc1 [methyl nicotinate]
laser Doppler response of positive control (humans [2]): rapid response typical of the vasodilator
vasodilatation (humans [3]): vasodilatation was observed
